{"source": "the NIST ThermoML archive (doi:10.1016/j.jct.2005.07.006)", "key": {"[1]": {"experiment": "Molar enthalpy of transition or fusion", "settings": "Crystal; DSC"}, "[2]": {"settings": "Crystal; DTA"}}, "note": "± gives the expanded uncertainty stated by the source."}
{"smiles": "N#Cc1nccnc1C#N", "note": "[2,3-pyrazinedicarbonitrile]", "values": [{"measurement": "Molar enthalpy of transition or fusion", "setting": "[1]", "value": "19.8 ± 0.75", "unit": "kJ/mol"}, {"measurement": "Triple point temperature", "setting": "[2]", "value": "405.06 ± 0.39", "unit": "K"}]}
